Measurements as given in patent US20030143670A1, “DNA encoding SNORF44 receptor” (priority 1999, published 2003).
Entries after “also recorded” stand apart in the source; their conditions may differ. Where no end group is shown, it is not given here.

T1: hSNORF44 (Homo sapiens, UniProt Q96P65)
T1 sequence (Q96P65 1-431): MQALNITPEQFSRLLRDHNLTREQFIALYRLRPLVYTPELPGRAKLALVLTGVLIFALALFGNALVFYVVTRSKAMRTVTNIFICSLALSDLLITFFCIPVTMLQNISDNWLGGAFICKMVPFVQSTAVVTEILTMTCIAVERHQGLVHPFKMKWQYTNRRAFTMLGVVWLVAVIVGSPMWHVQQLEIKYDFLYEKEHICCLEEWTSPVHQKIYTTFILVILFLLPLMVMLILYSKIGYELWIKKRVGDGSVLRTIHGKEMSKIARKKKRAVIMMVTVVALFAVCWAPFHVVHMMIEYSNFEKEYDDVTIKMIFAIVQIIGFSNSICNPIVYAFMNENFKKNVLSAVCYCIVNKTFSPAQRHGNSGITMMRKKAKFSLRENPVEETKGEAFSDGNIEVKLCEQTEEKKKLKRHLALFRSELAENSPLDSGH

T2: human SNORF44 receptor (human, UniProt Q96P65 1-431)
T2 sequence: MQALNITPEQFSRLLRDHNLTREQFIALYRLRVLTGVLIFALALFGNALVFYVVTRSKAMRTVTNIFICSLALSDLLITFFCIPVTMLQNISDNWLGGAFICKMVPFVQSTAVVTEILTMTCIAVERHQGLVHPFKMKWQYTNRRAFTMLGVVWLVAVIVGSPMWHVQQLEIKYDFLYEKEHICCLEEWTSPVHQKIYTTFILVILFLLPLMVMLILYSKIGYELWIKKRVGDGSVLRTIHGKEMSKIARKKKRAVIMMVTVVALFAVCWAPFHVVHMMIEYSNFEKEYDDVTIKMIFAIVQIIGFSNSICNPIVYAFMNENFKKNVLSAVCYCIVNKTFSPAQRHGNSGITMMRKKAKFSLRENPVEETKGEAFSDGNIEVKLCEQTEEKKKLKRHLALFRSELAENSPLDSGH


Columns and labels:
hSNORF44 [1] = target: T1, hSNORF44; experiment: Intracellular Ca2+ release (FLIPR) in transiently transfected COS-7 cells; assay type: cell-based; set-up: The entire coding region was then amplified by PCR from human spinal cord cDNA and subcloned into pcDNA3.1(−) for expression and functional analyses; expressed in transfected cells; host or cells: COS-7; conditions: COS-7 cells transfected with SNORF44
Experimental: (§1) A typical protocol for the DEAE-dextran method as applied to COS-7 and HEK293 cells is described as follows. Cells to be used for transfection are split 24 hours prior to the transfection to provide flasks which are 70-80% confluent at the time of transfection. Briefly, 8 μg of receptor DNA plus 8 μg of any additional DNA needed (e.g. Gα protein expression vector, reporter construct, antibiotic resistance marker, mock vector, etc.) are added to 9 ml of complete DMEM plus DEAE-dextran mixture (10 mg/ml in PBS). Cells plated into a T225 flask (sub-confluent) are washed once with PBS and the DNA mixture is added to each flask. The cells are allowed to incubate for 30 minutes at 37° C., 5% CO2. Following the incubation, 36 ml of complete DMEM with 80 μM chloroquine is added to each flask and allowed to incubate an additional 3 hours. The medium is then aspirated and 24 ml of complete medium containing 10% DMSO for exactly 2 minutes and then aspirated. The cells are then washed 2 times with PBS and 30 ml of complete DMEM added to each flask. The cells are then allowed to incubate over night. The next day the cells are harvested by trypsinization and reseeded into 96 well plates.
Cells expressing the receptor of interest are plated into clear, flat-bottom, black-walled 96-well plates (Costar) at a density of 80,000-150,000 cells per well and allowed to incubate for 48 hr at 5% CO2, 37° C. The growth medium is aspirated and 100 μL of loading medium containing Fluo-3 dye is added to each well. […]
(§2) The compounds of interest are diluted in wash buffer (Hank's BSS (without phenol red), 20 mM HEPES, 2.5 mM probenecid) to a 4× final concentration and aliquoted into a clear v-bottom plate (Nunc). […] Compounds are added to the cell plates and responses are measured using the FLIPR™ instrument. The data are then collected and analyzed using the FLIPR™ software and Graphpad Prism. […]

human SNORF44 = experiment: Calcium-activated Cl- currents in Xenopus laevis oocytes (voltage clamp); assay type: cell-based; conditions: control (uninjected) oocytes not expressing hSNORF44
Experimental: (§3) Oocytes were harvested from Xenopus laevis and injected with mRNA transcripts as previously described (Quick and Lester, 1994; Smith et al.,1997). Synthetic, full-length RNA transcripts for human SNORF44 were produced by digestion of the plasmid BN16 with HINDIII followed by transcription with T7 RNA Polymerase (“Message Machine”, Ambion). Oocytes were injected with 15 ng hSN44 receptors synthetic RNA and incubated for 3-4 days at 17 degrees. Dual electrode voltage clamp (Axon Instruments Inc.) was performed using 3 M KCl-filled glass microelectrodes having resistances of 1-2 Mohm. Unless otherwise specified, oocytes were voltage clamped at a holding potential of −80 mV. During recordings, oocytes were bathed in continuously flowing (1-3 ml/min) medium containing 96 mM NaCl, 2 mM KCl, 1.8 mM CaCl2, 1 mM MgCl2, and 5 mM HEPES, pH 7.5 (ND96 Buffer). Drugs were applied by local perfusion from a […] glass capillary tube fixed at a distance of 0.5 mm from the oocyte.
(§4) Heterologous expression of GPCRs in Xenopus oocytes has been widely used to determine the identity of signaling pathways activated by agonist stimulation (Gundersen et al., 1983; Takahashi et al., 1987). Activation of the phospholipase C (PLC) pathway is assayed by applying test compound in ND96 solution to oocytes previously injected with mRNA for the mammalian receptor and observing inward currents at a holding potential of −80 mV. The appearance of currents that reverse at −25 mV and display other properties of the Ca^++-activated Cl^− (chloride) channel is indicative of mammalian receptor-activation of PLC and release of IP3 and intracellular Ca^++.

hSNORF44 [2] = target: T1, hSNORF44; experiment: as above; assay type: cell-based; set-up: Synthetic, full-length RNA transcripts for human SNORF44 were produced by digestion of the plasmid BN16; expressed in transfected cells; host or cells: Xenopus laevis oocytes injected with synthetic RNA; conditions: oocytes injected with SNORF44 mRNA; 10 μM peptide; holding potential -80 mV
Experimental: as §3, §4

hSNORF44 [3] = experiment: Intracellular Ca2+ release (FLIPR) in transiently transfected COS-7 cells; assay type: cell-based, human; conditions: vector-transfected cells (so in the source); data not shown
Experimental: as §1, with “The cells are then washed 2 times with PBS and 30 ml of complete DMEM added to each flask. The cells are then allowed to incubate over night. The next day the cells are harvested by trypsinization and reseeded into 96 well plates.” left out
as §2

MC3 = MC3 (Homo sapiens, UniProt P41968); conditions: Schioth et al., 1996; cited from earlier work
Sequence of MC3 (P41968 whole entry): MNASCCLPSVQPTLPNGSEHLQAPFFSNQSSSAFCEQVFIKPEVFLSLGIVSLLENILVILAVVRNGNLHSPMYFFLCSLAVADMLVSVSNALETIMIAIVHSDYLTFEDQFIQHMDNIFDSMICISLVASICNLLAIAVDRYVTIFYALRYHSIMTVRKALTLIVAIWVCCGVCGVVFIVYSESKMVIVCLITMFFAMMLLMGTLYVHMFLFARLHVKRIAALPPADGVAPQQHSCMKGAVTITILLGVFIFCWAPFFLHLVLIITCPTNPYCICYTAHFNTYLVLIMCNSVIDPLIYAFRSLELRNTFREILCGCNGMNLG

hSNORF44 [4] = target: T1, hSNORF44; experiment: Inositol phosphate (IP) release in transfected COS-7 cells; assay type: cell-based; set-up: The entire coding region was then amplified by PCR from human spinal cord cDNA and subcloned into pcDNA3.1(−) for expression and functional analyses; expressed in transfected cells; host or cells: COS-7; conditions: hSNORF44-transfected COS-7 cells
Experimental: as §1, with “The medium is then aspirated and 24 ml of complete medium containing 10% DMSO for exactly 2 minutes and then aspirated. The cells are then washed 2 times with PBS and 30 ml of complete DMEM added to each flask. The cells are then allowed to incubate over night. The next day the cells are harvested by trypsinization and reseeded into 96 well plates.” left out
Human SNORF44 receptor-mediated activation of the inositol phosphate (IP) second messenger pathways were assessed by radiometric measurement of IP products.
For example, in a 96 well microplate format assay, COS-7 cells expressing the receptor of interest were plated at a density of 70,000 cells per well and allowed to incubate for 24 hours. […] 200 μL of scintillation cocktail was added to each well, and the radioactivity was determined by liquid scintillation counting.

human SNORF44 receptor = target: T2, human SNORF44 receptor; experiment: cell-based or functional assay

Molecule | release of intracellular Ca2+ as measured by FLIPR (hSNORF44 [1]) | response in control oocytes (human SNORF44) | current amplitude (Ca2+-dependent Cl- current) (hSNORF44 [2]) | EC50, release of IP second messengers, COS-7 cells (human SNORF44 receptor) | also measured
H-YGGHFRW-NH2 [Peptide 3, YGGHFRW-NH2] | stimulated release of intracellular Ca^2+ | not in control oocytes | 250±46 nA |  | 
NPY [reference compound] |  |  |  |  | effect on intracellular Ca2+ release (hSNORF44 [3]): neither NPFF nor NPY (ligands activating the most closely related GPCRs) had any significant effect
H-MGHFRF-NH2 [Peptide 2, MGHFRF-NH2] | stimulated release of intracellular Ca^2+ | not in control oocytes | 241±65 nA |  | 
gamma melanocortin [γ-MSH] |  |  |  |  | agonist activity at recombinant MC3 receptor (MC3): agonist
H-YSMEHFRW-NH2 [Peptide 1] | concentration-dependent release of intracellular Ca^2+ | no response; also recorded: does not respond | 1036±306 nA |  | release of IP second messengers, fold above basal (hSNORF44 [4]): approximately 10 fold
NPFF (FLFQPQRF; ends and bridges not checked; UniProt O15130 69-76, looked up) [reference compound] |  |  |  |  | effect on intracellular Ca2+ release (hSNORF44 [3]): neither NPFF nor NPY (ligands activating the most closely related GPCRs) had any significant effect
MGHFRF-NH2 [Peptide 2] |  |  |  | 294 nM | 
YGGHFRW-NH2 [Peptide 3] |  |  |  | 328 nM | 
YSMEHFRW-NH2 [Peptide 1] |  |  |  | 1210 nM | release of IP second messengers, fold above basal, COS-7 cells (human SNORF44 receptor): ~10 fold
